Assay results published in US9193722B2, “Tri-cyclic pyrazolopyridine kinase inhibitors” (Vertex Pharmaceuticals Incorporated, priority 2008, dated 2015).
pKi: −log10 of the molar value. Like-named read-outs stand apart in the source and are kept apart here.

Experiments:
Assay type in all cases: biochemical
[1] = biological target: PKC alpha kinase (Homo sapiens, UniProt P17252); experiment: PKC alpha kinase inhibition, coupled-enzyme (NADH absorbance) assay, Ki; settings: 130 μM ATP, 4.5 nM PKC alpha kinase, 30° C.
How it was run: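 Ki derived by non-linear regression of initial rates from a coupled assay tracking NADH absorbance at 340 nm over 15 min at 30 °C. ATP was 130 μM final after a 10 min compound–enzyme preincubation in HEPES pH 7.5 buffer with MgCl2, CaCl2, NaCl, EDTA and Brij.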

[2] = biological target: PKC delta kinase (Homo sapiens, UniProt Q05655); experiment: PKC delta kinase inhibition, coupled-enzyme (NADH absorbance) assay, Ki; settings: 150 μM ATP, 46 nM PKC delta kinase, 30° C.
How it was run: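 Enzyme and compound pre-equilibrated 10 min at 30° C before adding ATP to 150 μM final. Buffer: HEPES pH 7.5 (100 mM), 10 mM MgCl2, 25 mM NaCl, 0.1 mM EDTA, 0.01% Brij.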

[3] = biological target: PKC theta kinase (Homo sapiens, UniProt Q04759); experiment: PKC theta kinase inhibition, coupled-enzyme (NADH absorbance) assay, Ki; settings: 240 μM ATP, 18 nM PKC theta kinase, 30° C.
How it was run: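 Enzyme and compound equilibrated 10 min at 30 °C before reaction in HEPES pH 7.5 buffer with MgCl2, NaCl, EDTA and Brij. Activity tracked as NADH loss at 340 nm through a coupled system. Initial-rate data fitted by non-linear regression to give Ki.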

PKC delta kinase, sequence (Q05655 whole entry): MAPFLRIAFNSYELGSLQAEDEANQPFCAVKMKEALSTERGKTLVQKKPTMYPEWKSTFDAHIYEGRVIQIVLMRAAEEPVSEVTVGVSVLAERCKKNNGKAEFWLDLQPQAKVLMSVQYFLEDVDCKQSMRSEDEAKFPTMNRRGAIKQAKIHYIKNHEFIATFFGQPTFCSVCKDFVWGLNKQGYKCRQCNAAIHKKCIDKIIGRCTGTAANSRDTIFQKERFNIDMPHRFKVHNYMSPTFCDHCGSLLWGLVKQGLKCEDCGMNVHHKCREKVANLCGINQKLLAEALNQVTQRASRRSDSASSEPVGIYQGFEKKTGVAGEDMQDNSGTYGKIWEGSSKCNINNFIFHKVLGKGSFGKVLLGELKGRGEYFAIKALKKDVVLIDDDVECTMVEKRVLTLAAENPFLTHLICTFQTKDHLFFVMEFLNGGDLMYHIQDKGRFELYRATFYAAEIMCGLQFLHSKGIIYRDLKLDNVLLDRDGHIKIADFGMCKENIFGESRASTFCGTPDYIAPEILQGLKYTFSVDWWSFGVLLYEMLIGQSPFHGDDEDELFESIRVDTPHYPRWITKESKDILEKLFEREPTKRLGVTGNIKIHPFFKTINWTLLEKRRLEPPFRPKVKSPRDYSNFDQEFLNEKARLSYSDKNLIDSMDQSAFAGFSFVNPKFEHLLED
PKC theta kinase, sequence (Q04759 whole entry): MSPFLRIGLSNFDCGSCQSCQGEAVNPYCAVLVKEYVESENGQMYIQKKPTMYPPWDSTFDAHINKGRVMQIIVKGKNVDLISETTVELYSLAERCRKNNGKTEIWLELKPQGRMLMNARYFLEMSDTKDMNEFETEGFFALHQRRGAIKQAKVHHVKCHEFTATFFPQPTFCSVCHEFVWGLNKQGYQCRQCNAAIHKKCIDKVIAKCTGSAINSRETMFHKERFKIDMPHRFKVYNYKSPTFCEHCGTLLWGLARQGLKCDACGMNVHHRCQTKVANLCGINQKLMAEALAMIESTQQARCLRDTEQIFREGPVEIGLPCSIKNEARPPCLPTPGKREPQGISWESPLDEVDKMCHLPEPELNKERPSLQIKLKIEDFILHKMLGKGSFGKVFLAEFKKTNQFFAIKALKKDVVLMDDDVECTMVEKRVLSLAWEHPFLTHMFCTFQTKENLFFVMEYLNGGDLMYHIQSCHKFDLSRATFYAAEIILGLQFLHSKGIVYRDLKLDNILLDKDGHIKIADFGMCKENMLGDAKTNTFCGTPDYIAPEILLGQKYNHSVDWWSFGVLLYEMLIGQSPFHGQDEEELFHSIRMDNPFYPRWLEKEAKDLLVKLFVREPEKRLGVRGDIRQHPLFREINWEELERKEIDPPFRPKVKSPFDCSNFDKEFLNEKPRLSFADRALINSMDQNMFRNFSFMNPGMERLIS

| SMILES | pKi [1] | pKi ([2]; read-out: Ki PKC delta) | pKi [3] | pKi ([2]; Ki PKC delta) |
| --- | --- | --- | --- | --- |
| OC1(C2CN(c3ccc(F)c(-c4n[nH]c5ncccc45)n3)CCN2)CCCC1 (stereo not drawn) [Compound 245] | < 5.90 | > 6.30 | > 7.30 | – |
| CCOC[C@H]1CN(c2cccc(-c3n[nH]c4ncccc34)n2)CCN1 [Compound 147] | < 5.90 | < 5.90 | > 6.30 | – |
| NC1CCN(c2ccc(C(F)(F)F)c(-c3n[nH]c4ncccc34)n2)C1 (stereo not drawn) [Compound 125] | < 5.90 | < 5.90 | > 5.55 | – |
| CC(C)C[C@]1(O)CN(c2ccc(C(F)(F)F)c(-c3n[nH]c4ncccc34)n2)CC[C@@H]1N [Compound 219] | > 5.55 | > 6.30 | > 6.30 | – |
| CCC[C@H]1CN(c2cccc(-c3n[nH]c4ncccc34)n2)CC(F)(F)CN1 [Compound 227] | < 5.90 | < 5.90 | > 6.30 | – |
| Cc1cc(-c2n[nH]c3ncccc23)nc(N2CCC(N)CC2)c1 [Compound 107] | < 5.90 | < 5.90 | > 6.30 | – |
| c1cc(-c2n[nH]c3ncccc23)nc(N2CCNC(C3CC3)C2)c1 (stereo not drawn) [Compound 41] | < 5.90 | > 6.30 | > 7.30 | – |
| CC(C)(O)CC1CN(c2ccc(C(F)(F)F)c(-c3n[nH]c4ncccc34)n2)CCN1 (stereo not drawn) [Compound 72] | < 5.90 | < 5.70 | > 6.30 | – |
| CC(C)C[C@H]1CN(c2cc(C(F)(F)F)cc(-c3n[nH]c4ncccc34)n2)CCN1 [Compound 57] | < 5.90 | < 5.70 | > 6.30 | – |
| O=C1CN(c2ccc(C(F)(F)F)c(-c3n[nH]c4ncccc34)n2)CCN1 [Compound 194] | < 5.90 | < 5.90 | < 6.15 | – |
| Fc1ccc(N2CCNC(CC(F)(F)F)C2)nc1-c1n[nH]c2ncccc12 (stereo not drawn) [Compound 206] | < 5.90 | > 5.55 | > 7.30 | – |
| Fc1ccc(N2CCNCC2)nc1-c1n[nH]c2ncccc12 [Compound 88] | < 5.90 | – | > 6.30 | > 5.55 |
| CC(C)C[C@H]1CN(c2ccc(Cl)c(-c3n[nH]c4ncccc34)n2)CCN1 [Compound 47] | > 5.55 | > 6.30 | > 7.30 | – |
| CC(C)CC1(C)CN(c2cccc(-c3n[nH]c4ncccc34)n2)CCC1N (stereo not drawn) [Compound 189] | > 6.30 | > 7.30 | > 7.30 | – |
| CC(C)C[C@@H]1CN(c2cccc(-c3n[nH]c4ncc(F)cc34)n2)CCN1 [Compound 46] | > 5.55 | > 6.30 | > 7.30 | – |
| CN1CCCN(c2cccc(-c3n[nH]c4ncccc34)n2)CC1 [Compound 34] | > 6.30 | < 5.70 | > 6.30 | – |
| CC(F)(F)CC1CN(c2ccc(F)c(-c3n[nH]c4ncccc34)n2)CCN1 (stereo not drawn) [Compound 155] | < 5.90 | > 6.30 | > 7.30 | – |
| CCNC(=O)CC1CN(c2ccc(C(F)(F)F)c(-c3n[nH]c4ncccc34)n2)CCN1 (stereo not drawn) [Compound 212] | < 5.90 | < 5.90 | < 6.15 | – |
| Clc1cccc(C2CN(c3cccc(-c4n[nH]c5ncccc45)n3)CCN2)c1 (stereo not drawn) [Compound 18] | > 5.55 | > 5.55 | > 7.30 | – |
| COC(C)(C)C1CN(c2cccc(-c3n[nH]c4ncccc34)n2)CCN1 (stereo not drawn) [Compound 181] | < 5.90 | > 6.30 | > 7.30 | – |
| C=C(C)CC1CN(c2ccc(C(F)(F)F)c(-c3n[nH]c4ncccc34)n2)CCN1 (stereo not drawn) [Compound 103] | > 5.55 | > 6.30 | > 7.30 | – |
| CC(C)(C)C(N)C1CCCN(c2ccc(F)c(-c3n[nH]c4ncccc34)n2)C1 (stereo not drawn) [Compound 307] | > 6.30 | > 7.30 | > 9.00 | – |
| COC[C@H]1CN(c2cccc(-c3n[nH]c4ncccc34)n2)CCN1 [Compound 184] | < 5.90 | > 6.30 | > 7.30 | – |
| C[C@](O)(c1ccccc1)[C@@H]1CN(c2ccc(F)c(-c3n[nH]c4ncccc34)n2)CCN1 [Compound 274] | < 5.90 | < 5.90 | > 6.30 | – |
| COC(C)(C)C1CN(c2ccc(F)c(-c3n[nH]c4ncccc34)n2)CCN1 (stereo not drawn) [Compound 190] | < 5.90 | < 5.90 | > 6.30 | – |
| CC(C)C[C@@]1(O)CN(c2ccc(F)c(-c3n[nH]c4ncccc34)n2)CC[C@@H]1N [Compound 269] | > 6.30 | > 6.30 | > 7.30 | – |
| CC[C@H]1CN(c2cccc(-c3n[nH]c4ncccc34)n2)C[C@H](CC(C)C)N1 [Compound 12] | < 5.90 | < 5.70 | > 6.30 | – |
| CCC[C@H]1CN(c2cccc(-c3n[nH]c4ncccc34)n2)CCCN1 [Compound 228] | > 6.30 | > 6.30 | > 7.30 | – |

More lines, main results first:

| pKi [1] | pKi ([2]; read-out: Ki PKC delta) | pKi [3] | SMILES | pKi ([2]; Ki PKC delta) |
| --- | --- | --- | --- | --- |
| < 5.90 | > 5.55 | > 7.30 | CC(C)C(N)C1CN(c2ccc(F)c(-c3n[nH]c4ncccc34)n2)CCO1 (stereo not drawn) [Compound 346] | – |
| < 5.90 | < 5.90 | > 6.30 | NCC1CN(c2ccc(F)c(-c3n[nH]c4ncccc34)n2)CCO1 (stereo not drawn) [Compound 395] | – |
| < 5.90 | < 5.90 | > 6.30 | NCC1CCCN(c2ccc(F)c(-c3n[nH]c4ncccc34)n2)C1 (stereo not drawn) [Compound 327] | – |
| < 5.90 | < 5.90 | > 6.30 | CC(C)C(C)(O)C1CN(c2cc(C(F)(F)F)cc(-c3n[nH]c4ncccc34)n2)CCN1 (stereo not drawn) [Compound 342] | – |
| < 5.90 | > 5.55 | > 7.30 | CC(C)C[C@@H]1C[C@H](N)CN(c2ccc(F)c(-c3n[nH]c4ncccc34)n2)C1 [Compound 366] | – |
| < 5.90 | < 5.90 | < 6.15 | N#CC1CCN(c2ccc(F)c(-c3n[nH]c4ncccc34)n2)CC1 [Compound 275] | – |
| < 5.90 | < 5.90 | < 6.15 | CC(=O)N1CCN(c2ccc(F)c(-c3n[nH]c4ncccc34)n2)CC1C(C)(O)C(C)C (stereo not drawn) [Compound 414] | – |
| < 5.90 | > 5.55 | > 6.30 | NCC1CN(c2ccc(F)c(-c3n[nH]c4ncccc34)n2)CCC1O (stereo not drawn) [Compound 296] | – |
| < 5.90 | > 5.55 | > 7.30 | CC(C)CC1(O)CN(c2ccc(F)c(-c3n[nH]c4ncccc34)n2)CCC1C#N (stereo not drawn) [Compound 400] | – |
| < 5.90 | < 5.90 | < 6.15 | NCc1cccc(-c2ccc(C(F)(F)F)c(-c3n[nH]c4ncccc34)n2)c1 [Compound 306] | – |
| > 6.30 | > 7.30 | > 7.30 | CC(C)CC1(CO)CN(c2ccc(C(F)(F)F)c(-c3n[nH]c4ncccc34)n2)CCC1N (stereo not drawn) [Compound 410] | – |
| > 5.55 | > 7.30 | > 9.00 | CC(C)C(C)(O)C1CN(c2nc(-c3n[nH]c4ncccc34)ccc2F)CCN1 (stereo not drawn) [Compound 375] | – |
| < 5.90 | > 5.55 | > 6.30 | CCC(N)C1(C(F)(F)F)CCN(c2ccc(F)c(-c3n[nH]c4ncccc34)n2)C1 (stereo not drawn) [Compound 448] | – |
| < 5.90 | < 5.90 | > 7.30 | CC1(C)CC1(O)C1CN(c2ccc(F)c(-c3n[nH]c4ncccc34)n2)CCN1 (stereo not drawn) [Compound 380] | – |
| > 5.55 | > 6.30 | > 6.30 | CCCC1(CN)CN(c2ccc(C(F)(F)F)c(-c3n[nH]c4ncccc34)n2)CCO1 (stereo not drawn) [Compound 404] | – |
| < 5.90 | < 5.90 | > 6.30 | CO[C@H]1CN(c2ccc(C(F)(F)F)c(-c3n[nH]c4ncccc34)n2)CC[C@H]1N [Compound 384] | – |
| < 5.90 | < 5.90 | < 6.15 | CS(=O)(=O)NCC1CCCN(c2ccc(F)c(-c3n[nH]c4ncccc34)n2)C1 (stereo not drawn) [Compound 371] | – |
| < 5.90 | > 5.55 | > 7.30 | CC(C)CC(N)C1CCCN(c2ccc(F)c(-c3n[nH]c4ncccc34)n2)C1 (stereo not drawn) [Compound 299] | – |
| < 5.90 | < 5.90 | > 6.30 | CC1(C)CC1(O)C1CN(c2ccc(F)c(-c3n[nH]c4ncccc34)n2)CCN1 (stereo not drawn) [Compound 383] | – |
| < 5.90 | < 5.90 | < 6.15 | CC(C)CC1(C#N)CN(c2ccc(C(F)(F)F)c(-c3n[nH]c4ncccc34)n2)C1 [Compound 429] | – |
| < 5.90 | < 5.90 | > 6.30 | CC(C)CC1CN(c2ccc(C(F)(F)F)c(-c3n[nH]c4ncccc34)n2)CCC1C#N (stereo not drawn) [Compound 337] | – |
| > 5.55 | > 7.30 | > 9.00 | CC(C)(C(N)C1CCCN(c2ccc(F)c(-c3n[nH]c4ncccc34)n2)C1)C(F)(F)F (stereo not drawn) [Compound 393] | – |
| < 5.90 | < 5.90 | < 6.15 | NC(=O)C1(N)CCN(c2ccc(F)c(-c3n[nH]c4ncccc34)n2)CC1 [Compound 399] | – |
| < 5.90 | < 5.90 | > 7.30 | NCC1CCCN(c2cc(C(F)(F)F)cc(-c3n[nH]c4ncccc34)n2)C1 (stereo not drawn) [Compound 432] | – |
| > 5.55 | > 5.55 | > 5.55 | NCc1cccc(-c2cccc(-c3n[nH]c4ncccc34)n2)c1 [Compound 335] | – |
